Source: US8703156B2, “Liquid formulation for deferiprone with palatable taste” (Apotex Technologies Inc., priority 2008, dated 2014)
Peptide text beside a SMILES is read from it.

Assay: degradation of Aspartame following 2 months storage
Assay type: physicochemical
Conditions: pH below 3.4; confirmed by degradation following 2 months storage
From the text: The sweetener was changed to Aspartame. After another round of taste testing the formulation with 10 g/L of Aspartame became the most acceptable formulation in terms of taste tolerability, but Aspartame is unstable at pH below 3.4 and this was confirmed by testing the degradation of Aspartame following 2 months storage.

stability of Aspartame: unstable
SMILES: COC(=O)[C@H](Cc1ccccc1)NC(=O)[C@@H](N)CC(=O)O [Aspartame] (HELM PEPTIDE1{D.F.[CO[*:1]]}$$$$V2.0)
